Assay results from patent publication US8895313B2, “Ligands for aggregated tau molecules” (Wista Laboratories Ltd., priority 2008, dated 2014).

target: PHF (paired helical filaments) isolated from the brain of an Alzheimer's disease patient (Homo sapiens, UniProt P10636); assay: Competitive binding assay: displacement of primulin fluorescence from PHFs; design: key to P50: fl indicates that the compound is fluorescent. Consequently, binding levels for the compound in the competition binding assay cannot be determined by fluorescent spectroscopy; settings: compound fluorescent, no P50 obtainable
Sequence (P10636 623-708 limits assumed): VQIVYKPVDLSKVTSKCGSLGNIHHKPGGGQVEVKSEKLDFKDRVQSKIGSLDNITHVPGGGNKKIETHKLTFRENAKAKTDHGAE
Procedure: The DSB compounds were tested for their ability to bind to PHF in a competition-style assay.
If a test compound that also binds to PHFs with the same or greater affinity is added, it will displace the reference ligand and reduce the fluorescence signal. In the present assay, the reference compound is primulin, which was added at 1 μM. Test compounds were added at concentrations from 0.05 to 1 μM. The P50 for a test compound is defined as the concentration of compound that reduces the primulin signal to 50% of the control value. This value is, therefore, not an absolute affinity, but a relative affinity compared to the affinity of primulin.
PHFs were isolated from the brain of an Alzheimer's disease patient essentially as described by Wischik et al. (Neurobiology of Aging, Vol. 16, pp. 409-431, 1995). The IFII fraction was isolated by centrifugation on a sucrose gradient as described in the PhD thesis of C. M. Wischik, and was further extracted into an ‘abc sup’ as described by C. M. Wischik (Thesis “The structure and biochemistry of paired helical filaments in Alzheimer's disease” Part I and II; Cambridge University, 1989).
The assay for ligand activity was performed in 96 well plates (Nunc Cat. No. 236108). The test compound at the required concentration was mixed with PHFs, then primulin was added to give a final concentration of 1 μM and a total volume of 100 μl. The concentration of PHFs added was determined for each preparation to give an adequate fluorescence signal, and was typically in the range 1-2 μl/100 μl. The test compounds were typically dissolved in DMSO to give a final concentration of 10% DMSO in the assay. The control fluorescence, in the absence of PHFs, was also measured in the presence of 10% DMSO.
The fluorescence was measured in a Varian Carey Eclipse Fluorescence Spectrophotometer, with the […] wavelength at 480 nm. Excitation spectra were recorded and corrected by subtraction of the signal measured in the absence of PHFs, using the Varian software. The fluorescence signal at the peak […] wavelength of 420 nm was measured from the corrected spectra. The fluorescence values were plotted as a function of concentration of test compound, and the value for P50 measured from the graph.

P50	SMILES
fl	COc1ccc2nc(-c3ccc(/C=C/c4ccc(NC(=O)C(F)(F)F)cc4)cc3)sc2c1 [BEFA-06]
fl	COc1ccc2nc(-c3ccc(/C=C/c4ccc(F)cc4)cc3)sc2c1 [BEFA-10]
fl	Oc1ccc2nc(-c3ccc(/C=C/c4ccc(F)cc4)cc3)sc2c1 [BEHF-01]
fl	Oc1ccc2nc(-c3ccc(/C=C/c4ccc(NCC(F)(F)F)cc4)cc3)sc2c1 [BEHF-02]
fl	Oc1ccc2nc(-c3ccc(/C=C/c4cc(OC(F)(F)F)ccc4O)cc3)sc2c1 [BEHF-06]
fl	Oc1ccc(/C=C/c2ccc(-c3nc4ccc(O)cc4s3)cc2)c(C(F)(F)F)c1 [BEHF-07]
fl	Cc1ccc2nc(-c3ccc(/C=C/c4ccc(N(C)C)cc4)cc3)sc2c1 [BEMA-08]

same assay, conditions: concentration that reduces the signal of 1 μM primulin to 50% of control; relative affinity

P50	SMILES
no effect	Cc1ccc2nc(-c3ccc(/N=N/c4c(C(F)(F)F)cc(O)cc4C(F)(F)F)cc3)sc2c1 [BDF-08]
no effect	Oc1ccc(/N=N/c2ccc(-c3nc4cc(OC(F)(F)F)ccc4s3)cc2)cc1 [BDF-09]
no effect	COc1ccc2nc(-c3ccc(/C=C/c4ccccc4C(F)(F)F)cc3)sc2c1 [BEFA-01]
no effect	COc1ccc2nc(-c3ccc(/C=C/c4cccc(C(F)(F)F)c4)cc3)sc2c1 [BEFA-02]
no effect	COc1ccc2nc(-c3ccc(/C=C/c4ccc(C(F)(F)F)cc4)cc3)sc2c1 [BEFA-03]
no effect	COc1ccc2nc(-c3ccc(/C=C/c4ccc(OCC(F)(F)F)cc4)cc3)sc2c1 [BEFA-04]
no effect	COc1ccc2nc(-c3ccc(/C=C/c4ccc(NCCCC(F)(F)F)cc4)cc3)sc2c1 [BEFA-09]
no effect	COc1ccc2nc(-c3ccc(/C=C/c4ccc(OCCF)cc4)cc3)sc2c1 [BEFA-12]
no effect	Oc1ccc2nc(-c3ccc(/C=C/c4ccc(NCCCC(F)(F)F)cc4)cc3)sc2c1 [BEHF-04]
no effect	Cc1ccc2nc(-c3ccc(/C=C/c4ccccc4)cc3)sc2c1 [BEMA-01]
no effect	Cc1ccc2nc(-c3ccc(/C=C/c4ccccc4N)cc3)sc2c1 [BEMA-05]
no effect	Cc1ccc2nc(-c3ccc(/C=C/c4cccc(N)c4)cc3)sc2c1 [BEMA-06]
no effect	Cc1ccc2nc(-c3ccc(/C=C/c4ccccc4O)cc3)sc2c1 [BEMA-09]
no effect	Cc1ccc2nc(-c3ccc(/C=C/c4ccc(O)cc4)cc3)sc2c1 [BEMA-11]
no effect	COc1cccc(/C=C/c2ccc(-c3nc4ccc(C)cc4s3)cc2)c1 [BEMA-12]
no effect	COc1ccc2nc(-c3ccc(/C=C/c4ccc(N)cc4)cc3)sc2c1 [BEMOA-06]

same assay, conditions: concentration that reduces the signal of 1 μM primulin to 50% of control; relative affinity; read-out: P50

IC50 [nM]	SMILES
950	COc1ccc(C(=O)Nc2ccc(-c3cn4cc(C)ccc4n3)cc2)cc1F [AIPN-23]
~1000	COc1c(F)cc(C(=O)Nc2ccc(-c3cn4cc(C)ccc4n3)cc2)cc1F [AIPN-24]
> 1000	COc1cc(F)c(C(=O)Nc2ccc(-c3cn4cc(C)ccc4n3)cc2)c(F)c1 [AIPN-25]
> 1000	Cc1ccc2nc(-c3ccc(NC(=O)c4cc(F)c(O)c(F)c4)cc3)cn2c1 [AIPN-26]
> 1000	Cc1ccc2nc(-c3ccc(NC(=O)c4ccc(O)c(F)c4)cc3)cn2c1 [AIPN-27]
> 1000	COc1ccc(C(=O)Nc2ccc(-c3cn4cc(C)ccc4n3)cc2)cc1C(F)(F)F [AIPN-28]
700	Cc1ccc2nc(-c3ccc(NC(=O)c4ccc(O)cc4F)cc3)cn2c1 [AIPN-29]
> 1000	COc1cc(NC(=O)c2ccc(F)c([N+](=O)[O-])c2)ccc1-c1nc2ccccc2s1 [AUB-01]
> 1000	COCCOCCOCCOc1cc(NC(=O)c2ccc(F)c([N+](=O)[O-])c2)ccc1-c1nc2ccccc2s1 [AUB-02]
> 1000	CN(C)CCOc1cc(NC(=O)c2ccc([N+](=O)[O-])c(C(F)(F)F)c2)ccc1-c1nc2ccccc2s1 [AUB-03]
290	Cc1ccc2nc(-c3ccc(/N=N/c4ccc(O)cc4C(F)(F)F)cc3)sc2c1 [BDF-01]
460	Cc1ccc2nc(-c3ccc(/N=N/c4cc(C(F)(F)F)ccc4O)cc3)sc2c1 [BDF-02]
130	COc1ccc2nc(-c3ccc(/N=N/c4ccc(O)cc4C(F)(F)F)cc3)sc2c1 [BDF-03]
80	Oc1ccc(/N=N/c2ccc(-c3nc4ccc(O)cc4s3)cc2)c(C(F)(F)F)c1 [BDF-04]
90	Oc1ccc(/N=N/c2ccc(-c3nc4cc(O)ccc4s3)cc2)c(C(F)(F)F)c1 [BDF-05]
40	CN(C)c1ccc2nc(-c3ccc(/N=N/c4ccc(O)cc4C(F)(F)F)cc3)sc2c1 [BDF-06]

IC50 [nM]	SMILES
720	Oc1ccc(/N=N/c2ccc(-c3nc4ccc(OC(F)(F)F)cc4s3)cc2)cc1 [BDF-07]
870	COc1ccc2sc(-c3ccc(/N=N/c4ccc(C(F)(F)F)cc4O)cc3)nc2c1 [BDF-10]
600	COc1ccc2sc(-c3ccc(/N=N/c4ccc(O)cc4C(F)(F)F)cc3)nc2c1 [BDF-11]
700	COc1cccc2sc(-c3ccc(/N=N/c4ccc(C(F)(F)F)cc4O)cc3)nc12 [BDF-12]
350	COc1cccc2sc(-c3ccc(/N=N/c4ccc(O)cc4C(F)(F)F)cc3)nc12 [BDF-13]
20	Oc1ccc(/N=N/c2ccc(-c3nc4ccc(O)cc4s3)c(O)c2)c(C(F)(F)F)c1 [BDF-14]
140	Oc1ccc(/N=N/c2ccc(-c3nc4ccc(O)cc4s3)c(O)c2)c(OCCCC(F)(F)F)c1 [BDF-15]
30	Oc1ccc(/N=N/c2ccc(-c3nc4ccc(O)cc4s3)cc2O)c(C(F)(F)F)c1 [BDF-16]
30	Oc1ccc(/N=N/c2ccc(-c3nc4ccc(O)cc4s3)cc2O)c(OC(F)(F)F)c1 [BDF-17]
~1200	Cc1ccc2nc(-c3ccc(/C=C/c4cccc(O)c4)cc3)sc2c1 [BEMA-10]
40	COc1ccc2nc(-c3ccc(/C=C/c4ccc([N+](=O)[O-])cc4)cc3)sc2c1 [BEMOA-03]
280	COc1ccc2nc(-c3ccc(/C=C/c4cccc(N)c4)cc3)sc2c1 [BEMOA-05]
30	COc1ccc2nc(-c3ccc(/C=C/c4ccc(O)c([N+](=O)[O-])c4)cc3)sc2c1 [BEMOA-09]
30	Cc1ccc2nc(-c3ccc(/N=N/c4ccc(N(C)C)cc4)cc3)cn2c1 [DPN-001]
50	Cc1ccc2nc(-c3ccc(/C=C/c4ccc([N+](=O)[O-])cc4)cc3)cn2c1 [IEPN-01]
